The record followed here is EP4772500A1, “NOVEL ISOXAZOLE COMPOUND AS TM4SF5-SPECIFIC INHIBITOR AND USE THEREOF” (Seoul National University R&DB Foundation, priority 2023, dated 2025).

Experiment [1] has as its system TM4SF5-non-expressing cells (SNU449Cp). Nature of the experiment: 2D cell growth/proliferation, TM4SF5-non-expressing cells. As to conditions: 2D environment (FIG. 3a). It is filed as cell-based, human. The method, then:
The drugs treated were the positive control drug TSAHC or the ST-1-025 isoxazole compound at the given concentrations. From the time of starting culture (0 day), (FIG. 3a) in the case of 2D culture, the number of cells was measured after treating with the drug every 24 hours, or (FIG. 3b) in a 3D environment, the proliferation of cells (spheres) was observed and photographed with an optical microscope on the 5th and 7th days after a single drug treatment at the start of culture.

A further experiment has as its system SNU449-TM4SF5 cells. The experiment in a line: Cell migration tracking, TM4SF5-expressing cells. It counts as cell-based, human. The settings on record: SNU449-TM4SF5, 2.5, 5.0, or 10.0 µM, 17 hours (FIG. 7). The method, then: SNU449-TM4SF5 cells, which were made to express TM4SF5 using a lentivirus in human hepatocellular carcinoma cells SNU449, and SNU449-EV cells, into which a control vector (empty vector, EV) was injected so that TM4SF5 is not expressed, were seeded to a density of 40% in 8-chamber plates (Thermo) coated with 10 µg/ml collagen type 1 (Advanced Biomatrix). Three hours after seeding in a cell culture environment containing 10% FBS (GenDEPOT), DMSO and drugs were treated in the culture medium at the indicated concentrations. After treating with the drugs, the positions of the same moving cells were repeatedly photographed using a microscope every 20 minutes for 17 hours. The cells were photographed using an IX81-ZDC microscope (Olympus) equipped with a UPLSAPO 10X2, NA0.4 Super Apochromatic objective lens (Olympus). While photographing the cells, a general cell culture environment was created by constantly injecting 5% CO2 at a rate of 40-60 mL/min at 37°C using a controller (Live Cell Instrument). The migration distance and path of the cells were calculated using the "Track Object" application of MetaMorph software (Molecular Devices LLC). […]

Another experiment concerns Alb-TG^Tm4sf5-Flag mice. Nature of the experiment: DEN-induced liver cancer model in TM4SF5 transgenic animals. It is filed as in vivo. As to the method:
A liver cancer model was induced in 2-week-old male wild type (WT), Alb-TG^Tm4sf5-Flag [genetically modified animals in which Tm4sf5 expression is excessively regulated by the promoter of the Albumin gene, custom-made by Macrogen Co., Ltd.], or Tm4sf5^-/- KO C57BL/6N male animals by a single intraperitoneal injection (IP injection) of DEN (diethylnitrosamine, Sigma-Aldrich) at a concentration of 25 mg/kg, followed by raising for […]. After the DEN treatment, the animals were raised in a pathogen-free room animal facility where temperature and humidity were well controlled under a normal diet for 40 weeks. During the last 6 weeks, an isoxazole drug (dissolved in 40% DMSO) at the indicated concentration was treated by intraperitoneal injection twice a week. Forty-six weeks after the DEN injection, the animals were sacrificed, and liver tissues were analyzed through methods of tissue staining, Western blot, and qRT-PCR.
In cases where a liver cancer model is induced by treating animals with diethylnitrosamine (DEN), liver cancer formation was induced by a single intraperitoneal injection (IP injection) of DEN into 2-week-old animals, followed by raising them for 46 weeks. […] Thereafter, the animals were sacrificed, and liver tissues were obtained and analyzed. […]

For the next experiment, the system named is SNU449T7 cells. The experiment in a line: Subcutaneous xenograft liver cancer model in severely combined immunodeficient animals. It counts as in vivo, NOD-SCID mice. As to the method:
Cells expressing TM4SF5 (SNU449T7) were cultured in a cell incubator at 37°C and 5% CO2. The next day, the cells were detached by treating with a T/E (Trypsin/EDTA) solution and centrifuged at 150 × g for 3 minutes to obtain a cell pellet. Thereafter, the supernatant was removed, and the pellet was prepared by resuspension in phosphate buffered saline (PBS). For the generation of cancer tissue, 5 × 10^5 cells/100 µl were injected once subcutaneously into the right thigh area of 6-week-old male NOD/SCID mice. At this time, the animals were anesthetized by inhalation with […] isoflurane and injected. From the 15th day after the cell injection, drug ST-5-002 was intraperitoneally injected at 2.5 mg/kg of body weight at 100 µl per dose for a total of 8 times every 3 days. The body weight and tumor volume of the animals were measured every 3 days from the 12th day after the cell injection. The tumor volume was calculated as (length × width × width)/2 (mm^3) by measuring the length and width of the tumor. On the 36th day after the cell (SNU449T7) injection, the animals were sacrificed, and cancer tissues were obtained and analyzed.
SNU449T7 cells were subcutaneously injected into the thighs of 6-week-old male NOD/CB17-Prkdc^scid/J mice (NOD-SCID mice lacking or having non-functional immune cells such as T cells, B cells, and NK cells, n=10), at a dose of 5X10^5 cells. One week later, vehicle or the drug ST-5-002 was intravenously injected at a concentration of 2.5 mg/kg of body weight (mpk) twice a week. Three days after the 8th drug injection, the animals were sacrificed, cancer tissues were recovered and photographed, and immunohistochemistry, Western blot, and qRT-PCR analyses were performed.

As for `COc1ccc(-c2cc(-c3ccc(N)cc3)no2)cc1` [ST-1-025, 4-(5-(4-methoxyphenyl)isoxazole-3-yl)aniline], the growth or proliferation entry in experiment [1] was “no significant difference”.

Consider `COc1ccc(-c2cc(-c3ccc(NC(C)=O)cc3)no2)cc1` [ST-2-001, N-(4-(5-(4-methoxyphenyl)isoxazole-3-yl)phenyl)acetamide], for which the “migration of the cells” value in the experiment on SNU449-TM4SF5 cells was “decreased according to the treatment with ST-2-001 in a concentration-dependent manner”. For the same compound, the cancer formation result in the experiment with Alb-TG^Tm4sf5-Flag mice (DEN 25 mg/kg, drug 5 mg/kg IP twice a week for the final 6 weeks, Alb-TG^Tm4sf5-Flag mice (FIG. 23b)) is on record as “minimal or did not occur”. For the same compound, the “mRNA expressions of NK cell activating receptor factors such as SLAMF7, NKG2D, CRTAM, DNAM-1, and CD27” value with Alb-TG^Tm4sf5-Flag mice (qRT-PCR of liver tissues (FIG. 23c)) was “partially recovered and increased”.

Regarding `Cc1ccc(C(=O)Nc2ccc(-c3cc(-c4ccc(O)cc4)no3)cc2)cc1` [ST-5-002, N-(4-(3-(4-hydroxyphenyl)isoxazole-5-yl)phenyl)-4-methylbenzamide], in the experiment on SNU449T7 cells (2.5 mg/kg of body weight (mpk), 8 injections (FIG. 24c)), the “inhibitory efficacy in cancer formation in terms of tumor volume and weight” value is on record as “statistically significant inhibitory efficacy”. The tumor size result in the experiment on SNU449T7 cells (2.5 mg/kg of body weight (mpk), 8 injections, vs vehicle (FIG. 24b)) is “decreased”. In the experiment with SNU449T7 cells (immunostaining (FIG. 24d)), the “SLAMF7 staining in the small cancer areas” value is “much more distinctly strong staining level”; the “degree of PD-L1 staining” value is “decreased”; the “expression of TM4SF5” value is “did not change significantly”; the “expressions of AFP and laminin γ2” value is recorded as “significantly reduced”. Also, in the experiment on SNU449T7 cells (immunostaining, vs control group (FIG. 24d)), the “staining level of F4/80 and expressions of CCL5 and CCL20” value is reported as “lower”.
